Experimental data: US9884048B2, “ERK inhibitors” (Merck Sharp & Dohme Corp., priority 2014, dated 2018)

What follows are compounds tested against phosphorylated active hERK2 enzyme (Homo sapiens (Human), UniProt P28482). Conditions: read-out: ERK2 IC50; IMAP-FP assay; 0.5 nM hERK2, 30 μM ATP; 10 point titration, 3 μM starting concentration.
Sequence of phosphorylated active hERK2 enzyme (P28482 whole entry): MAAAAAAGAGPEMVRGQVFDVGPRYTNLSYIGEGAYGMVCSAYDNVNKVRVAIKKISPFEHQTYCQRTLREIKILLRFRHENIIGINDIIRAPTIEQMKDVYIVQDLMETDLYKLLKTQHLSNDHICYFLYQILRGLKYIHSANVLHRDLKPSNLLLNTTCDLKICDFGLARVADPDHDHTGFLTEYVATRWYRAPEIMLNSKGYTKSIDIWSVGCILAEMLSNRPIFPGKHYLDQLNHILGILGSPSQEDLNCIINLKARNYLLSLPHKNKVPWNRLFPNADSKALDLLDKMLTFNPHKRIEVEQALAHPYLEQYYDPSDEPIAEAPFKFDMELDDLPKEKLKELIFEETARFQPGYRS
Experimental: Active Human ERK2 (hERK2) Activity Assay:
Activated ERK2 activity was determined in an IMAP-FP assay (Molecular Devices). […] The final reaction in each well of 25 μL consists of 0.5 nM hERK2, 900 nM unlabeled peptide, 80 nM labeled-peptide, and 30 μM ATP. Phosphorylation reactions were allowed to proceed for 60 minutes and were immediately quenched by the addition of 60 μL IMAP detection beads (1:1000 dilutions) in IMAP binding buffer (Molecular Devices) with 24 mM NaCl. Plates were read on EnVision reader after 60 minutes binding equilibration using Fluorescence Polarization protocol (Perkin Elmer).

Compound | IC50
Cc1cc(-n2ncc3cc(NC(=O)NCC(CO)c4ccccc4)ncc32)ccn1 (stereo not shown) [Example 49, 1-(3-hydroxy-2-phenylpropyl)-3-[1-(2-methylpyridin-4-yl)-1H-pyrazolo[3,4-c]pyridin-5-yl]urea] | 7.66 nM
Cc1cc(-n2ncc3cc(NC(=O)NCC(c4ccccc4)N4CCCCC4)ncc32)ccn1 (stereo not shown) [Example 50, 1-[1-(2-methylpyridin-4-yl)-1H-pyrazolo[3,4-c]pyridin-5-yl]-3-(2-phenyl-2-piperidin-1-ylethyl)urea] | 198 nM
Cc1cc(-n2ncc3cc(NC(=O)NC(CCN(C)C)c4ccccc4)ncc32)ccn1 (stereo not shown) [Example 51, 1-[3-(dimethylamino)-1-phenylpropyl]-3-[1-(2-methylpyridin-4-yl)-1H-pyrazolo[3,4-c]pyridin-5-yl)urea] | 2.7 nM
Cc1cc(-n2ncc3cc(NC(=O)NCC4(c5ccccc5)CCOCC4)ncc32)ccn1 [Example 52, 1-[1-(2-methylpyridin-4-yl)-1H-pyrazolo[3,4-c]pyridin-5-yl]-3-[(4-phenyltetrahydro-2H-pyran-4-yl)methyl]urea] | 7.09 nM
Cc1cc(-n2ncc3cc(NC(=O)NC(CCN4CCCCC4)c4ccccc4)ncc32)ccn1 (stereo not shown) [Example 53, 1-[1-(2-methylpyridin-4-yl)-1H-pyrazolo[3,4-c]pyridin-5-yl]-3-(1-phenyl-3-piperidin-1-ylpropyl)urea] | 49.2 nM
Cc1cc(-n2ncc3cc(NC(=O)NCC(c4ccc(F)cc4)N4CCCCC4)ncc32)ccn1 (stereo not shown) [Example 54, 1-[2-(4-fluorophenyl)-2-piperidin-1-ylethyl]-3-[1-(2-methylpyridin-4-yl)-1H-pyrazolo[3,4-c]pyridin-5-yl)urea] | 195 nM
Cc1cc(-n2ncc3cc(NC(=O)NCC(c4ccccc4)N4CCC(F)(F)CC4)ncc32)ccn1 (stereo not shown) [Example 55, 1-[2-(4,4-difluoropiperidin-1-yl)-2-phenylethyl]-3-[1-(2-methylpyridin-4-yl)-1H-pyrazolo[3,4-c]pyridin-5-yl]urea] | 85.1 nM
COc1cccc(F)c1CN1CCC[C@@H](NC(=O)Nc2cc3cnn(-c4ccnc(C)c4)c3cn2)C1 [Example 56, 1-[(3R)-1-(2-fluoro-6-methoxybenzyl)piperidin-3-yl]-3-[1-(2-methylpyridin-4-yl)-1H-pyrazolo[3,4-c]pyridin-5-yl]urea] | 0.524 nM
Cc1cc(-n2ncc3cc(NC(=O)NC4CN(C)CC4c4ccccc4)ncc32)ccn1 (stereo not shown) [Example 57, 1-(1-methyl-4-phenylpyrrolidin-3-yl)-3-[1-(2-methylpyridin-4-yl)-1H-pyrazolo[3,4-c]pyridin-5-yl]urea] | 0.823 nM
Cc1cc(-n2ncc3cc(NC(=O)NCc4ccccc4)ncc32)ccn1 [Example 58, 1-benzyl-3-[1-(2-methylpyridin-4-yl)-1H-pyrazolo[3,4-c]pyridin-5-yl]urea] | 8.41 nM
Cc1cc(-n2ncc3cc(NC(=O)N[C@H](C)c4ccccc4)ncc32)ccn1 [Example 59, 1-[1-(2-methylpyridin-4-yl)-1H-pyrazolo[3,4-c]pyridin-5-yl]-3-[(1R)-1-phenylethyl]urea] | 1.01 nM
Cc1cc(-n2ncc3cc(NC(=O)NCc4cnn(-c5ccc(F)cc5)c4)ncc32)ccn1 [Example 60, 1-{[1-(4-fluorophenyl)-1H-pyrazol-4-yl]methyl}-3-[1-(2-methylpyridin-4-yl)-1H-pyrazolo[3,4-c]pyridin-5-yl]urea] | 1630 nM
Cc1cc(-n2ncc3cc(NC(=O)NCC(F)(F)c4ccccc4)ncc32)ccn1 [Example 61, 1-(2,2-difluoro-2-phenylethyl)-3-[1-(2-methylpyridin-4-yl)-1H-pyrazolo[3,4-c]pyridin-5-yl]urea] | 193 nM
Cc1cc(-n2ncc3cc(NC(=O)NC(CN)c4ccccc4)ncc32)ccn1 (stereo not shown) [Example 62, 1-(2-amino-1-phenylethyl)-3-[1-(2-methylpyridin-4-yl)-1H-pyrazolo[3,4-c]pyridin-5-yl]urea] | 0.962 nM
Cc1cc(-n2ncc3cc(NC(=O)NC4CNCC4c4ccccc4)ncc32)ccn1 (stereo not shown) [Example 63, 1-[1-(2-methylpyridin-4-yl)-1H-pyrazolo[3,4-c]pyridin-5-yl]-3-(4-phenylpyrrolidin-3-yl)urea] | 54.4 nM
Cc1cc(-n2ncc3cc(NC(=O)NCc4cnn5ccccc45)ncc32)ccn1 [Example 64, 1-[1-(2-methylpyridin-4-yl)-1H-pyrazolo[3,4-c]pyridin-5-yl]-3-(pyrazolo[1,5-a]pyridin-3-ylmethyl)urea] | 71.6 nM
Cc1cc(-n2ncc3cc(NC(=O)N[C@H](CO)c4ccccc4)ncc32)ccn1 [Example 65, 1-[(1S)-2-hydroxy-1-phenylethyl]-3-[1-(2-methylpyridin-4-yl)-1H-pyrazolo[3,4-c]pyridin-5-yl]urea] | 1.02 nM
Cc1cc(-n2ncc3cc(NC(=O)NC(C)c4ccc(S(C)(=O)=O)cc4)ncc32)ccn1 (stereo not shown) [Example 66, 1-[1-(2-methylpyridin-4-yl)-1H-pyrazolo[3,4-c]pyridin-5-yl]-3-{1-[4-(methylsulfonyl)phenyl]ethyl}urea] | 7.78 nM
Cc1cc(-n2ncc3cc(NC(=O)NC4CNC(c5ccccc5)C4)ncc32)ccn1 (stereo not shown) [Example 67, 1-[1-(2-methylpyridin-4-yl)-1H-pyrazolo[3,4-c]pyridin-5-yl]-3-(5-phenylpyrrolidin-3-yl)urea] | 200 nM

Compound | IC50
Cc1cc(-n2ncc3cc(NC(=O)NCc4sc(C(C)C)nc4C)ncc32)ccn1 [Example 68, 1-{[4-methyl-2-(1-methylethyl)-1,3-thiazol-5-yl]methyl}-3-[1-[2-methylpyridin-4-yl)-1H-pyrazolo[3,4-c]pyridin-5-yl]urea] | 707 nM
Cc1cc(-n2ncc3cc(NC(=O)NCC4(c5ccccc5)CCOC4)ncc32)ccn1 (stereo not shown) [Example 69, 1-[1-(2-methylpyridin-4-yl)-1H-pyrazolo[3,4-c]pyridin-5-yl]-3-[(3-phenyltetrahydrofuran-3-yl)methyl]urea] | 17.7 nM
Cc1cc(-n2ncc3cc(NC(=O)NCCN4CC5CC4CN5c4ccccc4)ncc32)ccn1 (stereo not shown) [Example 70, 1-[1-(2-methylpyridin-4-yl)-1H-pyrazolo[3,4-c]pyridin-5-yl]-3-[2-(5-phenyl-2,5-diazabicyclo[2.2.1]hept-2-yl)ethyl]urea] | 16.9 nM
Cc1cc(-n2ncc3cc(NC(=O)NC(CCN(C)C)c4ccccn4)ncc32)ccn1 (stereo not shown) [Example 72, 1-[3-(dimethylamino)-1-pyridin-2-ylpropyl]-3-[1-(2-methylpyridin-4-yl)-1H-pyrazolo[3,4-c]pyridin-5-yl]urea] | 10.2 nM
Cc1cc(-n2ncc3cc(NC(=O)NCC(c4ccccn4)N4CCOCC4)ncc32)ccn1 (stereo not shown) [Example 73, 1-[1-(2-methylpyridin-4-yl)-1H-pyrazolo[3,4-c]pyridin-5-yl]-3-(2-morpholin-4-yl-2-pyridin-2-ylethyl)urea] | 243 nM
Cc1cc(-n2ncc3cc(NC(=O)NCc4ccc5c(c4)CC(=O)N5)ncc32)ccn1 [Example 74, 1-[1-(2-methylpyridin-4-yl)-1H-pyrazolo[3,4-c]pyridin-5-yl]-3-[(2-oxo-2,3-dihydro-1H-indol-5-yl)methyl]urea] | 73.1 nM
Cc1cc(-n2ncc3cc(NC(=O)NCc4cccc(-n5cccn5)c4)ncc32)ccn1 [Example 75] | 5.28 nM
Cc1cc(-n2ncc3cc(NC(=O)NCc4ccc(-n5cccn5)cc4)ncc32)ccn1 [Example 76, 1-[1-(2-methylpyridin-4-yl)-1H-pyrazolo[3,4-c]pyridin-5-yl]-3-[4-(1H-pyrazol-1-yl)benzyl]urea] | 1110 nM
Cc1cc(-n2ncc3cc(NC(=O)NC45CC6CC(CC(O)(C6)C4)C5)ncc32)ccn1 [Example 77, 1-(3-hydroxytricyclo[3.3.1.1~3,7~]dec-1-yl)-3-[1-(2-methylpyridin-4-yl)-1H-pyrazolo[3,4-c]pyridin-5-yl)urea] | 1880 nM
Cc1cc(-n2ncc3cc(NC(=O)NC4CCN(c5ccccc5)CC4)ncc32)ccn1 [Example 78, 1-[1-(2-methylpyridin-4-yl)-1H-pyrazolo[3,4-c]pyridin-5-yl]-3-(1-phenylpiperidin-4-yl)urea] | 1740 nM
Cc1cc(-n2ncc3cc(NC(=O)NCC4CN(c5ccccc5)CCO4)ncc32)ccn1 (stereo not shown) [Example 79, 1-[1-(2-methylpyridin-4-yl)-1H-pyrazolo[3,4-c]pyridin-5-yl]-3-[(4-phenylmorpholin-2-yl)methyl]urea] | 26.5 nM
Cc1cc(-n2ncc3cc(NC(=O)NC4CC(=O)Nc5ccccc54)ncc32)ccn1 (stereo not shown) [Example 80, 1-[1-(2-methylpyridin-4-yl)-1H-pyrazolo[3,4-c]pyridin-5-yl]-3-(2-oxo-1,2,3,4-tetrahydroquinolin-4-yl)urea] | 196 nM
Cc1cc(-n2ncc3cc(NC(=O)N[C@@H](c4ccccc4)C(F)F)ncc32)ccn1 [Example 81, 1-[(1S)-2,2-difluoro-1-phenylethyl]-3-[1-(2-methylpyridin-4-yl)-1H-pyrazolo[3,4-c]pyridin-5-yl)urea] | 914 nM
Cc1cc(-n2ncc3cc(NC(=O)NC4CCCN(c5ccccc5)C4)ncc32)ccn1 (stereo not shown) [Example 82, 1H-pyrazolo[3,4-c]pyridin-1-[1-(2-methylpyridin-4-yl)-5-yl]-3-(1-phenylpiperidin-3-yl)urea] | 7.61 nM
Cc1cc(-n2ncc3cc(NC(=O)NCCC4CCOC4)ncc32)ccn1 (stereo not shown) [Example 83, 1-[1-(2-methylpyridin-4-yl)-1H-pyrazolo[3,4-c]pyridin-5-yl]-3-[2-(tetrahydrofuran-3-yl)ethyl]urea] | 64.7 nM
Cc1cc(-n2ncc3cc(NC(=O)NCc4ccc5c(c4)CNC5=O)ncc32)ccn1 [Example 84, 1-[1-(2-methylpyridin-4-yl)-1H-pyrazolo[3,4-c]pyridin-5-yl]-3-[(1-oxo-2,3-dihydro-1H-isoindol-5-yl)methyl]urea] | 17.4 nM
Cc1cc(-n2ncc3cc(NC(=O)NCCOc4ccc(F)cc4)ncc32)ccn1 [Example 85, 1-[2-(4-fluorophenoxy)ethyl]-3-[1-(2-methylpyridin-4-yl)-1H-pyrazolo[3,4-c]pyridin-5-yl)urea] | 15.9 nM
Cc1cc(-n2ncc3cc(NC(=O)NCc4ccc(C(C)(C)O)cc4)ncc32)ccn1 [Example 86, 1-[4-(1-hydroxy-1-methylethyl)benzyl]-3-[1-(2-methylpyridin-4-yl)-1H-pyrazolo[3,4-c]pyridin-5-yl)urea] | 731 nM
